Data on one molecule can be found in ChEMBL document CHEMBL1687859, “Therapeutic efficacy of halocidin-derived peptide HG1 in a mouse model of surgical wound infection with methicillin-resistant Staphylococcus aureus” (Antimicrob Agents Chemother, 2011).

In brackets after ≈: the same amount, converted by molar mass. Activity calls are given as the source filed them. The calls are words filed in the database; no cut-off is given here. Bridge positions count the residues as written; N and C are the ends. Peptide text beside a SMILES is read from it. I, II: the chains in the order shown.

Series [1] concerns Zone of skin. The series is described as follows: Drug penetration in ICR mouse skin administered topically using plastic cylinder by HPLC analysis. In kind it is ADME, tissue-based. The settings on record: in vivo, topical_or_ocular.
Series [2] deals with Zone of skin. The experiment in a line: Drug penetration in ICR mouse skin administered topically using plastic cylinder by immunoblotting. The series is classed as ADME, tissue-based. The settings on record: in vivo, topical_or_ocular. A general note: In western blotting, separated proteins are transferred to a membrane and probed.
The subject of series [3] is Zone of skin. The experiment in a line: Drug penetration in ICR mouse skin administered topically using plastic cylinder by fluorescence microscopy. In kind it is ADME, tissue-based. Conditions: in vivo, topical_or_ocular.
Series [4] has as its system Staphylococcus aureus. The series is described as follows: Antibacterial activity against methicillin-resistant Staphylococcus aureus. In kind it is functional.
The subject of series [5] is Staphylococcus aureus. The series is described as follows: Antibacterial activity against methicillin-resistant Staphylococcus aureus infected in ICR mouse surgical wound model assessed as reduction of CFU administered topically every 12 hrs for 5 days. The series is classed as functional.
Series [6] concerns Zone of skin. The experiment in a line: Drug penetration in ethidium bromide-labeled methicillin-resistant Staphylococcus aureus infected ICR mouse skin administered topically after 4 hrs by confocal microscopic analysis. In kind it is ADME, tissue-based. Conditions: in vivo, topical_or_ocular.
Series [7] concerns Staphylococcus aureus. The series is described as follows: Drug binding to ethidium bromide-labeled methicillin-resistant Staphylococcus aureus infected in ICR mouse skin administered topically after 4 hrs by confocal microscopic analysis. The series is classed as ADME, organism-based. Conditions: in vivo, topical_or_ocular.
For series [8], the system named is Staphylococcus aureus. The series is described as follows: Antibacterial activity against ethidium bromide-labeled methicillin-resistant Staphylococcus aureus infected in ICR mouse skin administered topically after 4 hrs by confocal microscopic analysis. In kind it is functional, organism-based.

Turning to `CC(C)C[C@H](NC(=O)CNC(=O)[C@H](Cc1cnc[nH]1)NC(=O)[C@H](Cc1cnc[nH]1)NC(=O)[C@H](CC(C)C)NC(=O)[C@H](CC(C)C)NC(=O)[C@H](C)NC(=O)[C@H](CC(N)=O)NC(=O)[C@H](CC(C)C)NC(=O)[C@H](Cc1c[nH]c2ccccc12)NC(=O)[C@@H](N)CCCCN)C(=O)N[C@@H](CC(N)=O)C(=O)N[C@@H](CSSC[C@H](NC(=O)[C@H](CC(N)=O)NC(=O)[C@H](CC(C)C)NC(=O)CNC(=O)[C@H](Cc1cnc[nH]1)NC(=O)[C@H](Cc1cnc[nH]1)NC(=O)[C@H](CC(C)C)NC(=O)[C@H](CC(C)C)NC(=O)[C@H](C)NC(=O)[C@H](CC(N)=O)NC(=O)[C@H](CC(C)C)NC(=O)[C@H](Cc1c[nH]c2ccccc12)NC(=O)[C@@H](N)CCCCN)C(=O)N[C@@H](C)C(=O)N[C@@H](CCCCN)C(=O)NCC(=O)N[C@H](C(=O)N[C@@H](CC(C)C)C(=O)N[C@@H](C)C(N)=O)C(C)C)C(=O)N[C@@H](C)C(=O)N[C@@H](CCCCN)C(=O)NCC(=O)N[C@H](C(=O)N[C@@H](CC(C)C)C(=O)N[C@@H](C)C(N)=O)C(C)C` (I: H-KWLNALLHHGLNCAKGVLA-NH2 / II: H-KWLNALLHHGLNCAKGVLA-NH2; disulfide I:13-II:13), the Drug uptake result in the series on Zone of skin [1], in the series with Zone of skin [2], in the series with Zone of skin [3] and in the series with Zone of skin [6] was “Active” throughout. The lowest concentration to inhibit growth with Staphylococcus aureus [4] (MIC) was 4 µg/mL (≈ 0.973 µM). Further, the CFU with Staphylococcus aureus [5] worked out at 3. For the same molecule, the result with Staphylococcus aureus [7] was Active. Further, the outcome with Staphylococcus aureus [8] was Active.
